In patent EP3878462B1 (priority 2015, dated 2017):
Like-named read-outs stand apart in the source and are kept apart here. Each block holds one compound with its values, some of them ahead of it.

Experiments:
L1210 leukemia cells = experiment: Survival of mice transplanted with L1210 leukemia cells; type: in vivo, DBA2 mice; conditions: single agent: AraC 1000 mg/kg IP Days 2, 5, 8, or DNase II 15 or 45 mg/kg/day IP; Figure 4
Protocol: Treatment with DNase and AraC was initiated on Day 1 of experiment. Cytosine arabinoside (AraC; Cytosar; Pfizer) was injected IP at a dose of 1000 mg/kg on Days 2, 5 and 8. The injected doses were considered adequate for the model and injection route based on prior experiments (13-14). DNase II (Wornington) was injected IP at doses of 15 mg/kg/day and 45 mg/kg/day on Days 1, 3, 5, 8, 10, 12, 15, 17, and 19.
Animals were randomized into 6 experimental groups of 6 mice per group as follows: • 1. Group I: negative control (no treatment); • 2. Group II: positive control (animals treated with AraC); • 3. Group III: animals treated with AraC and 15 mg/kg DNase; • 4. Group IV: animals treated with AraC and 45 mg/kg DNase; • 5. Group V: animals treated with 15 mg/kg DNase, no AraC; • 6. Group VI: animals treated with 45 mg/kg DNase, no AraC.

[1] = Etoposide 200 mg/kg + 5-FU 400 mg/kg per os, treatment 50 mg/kg IV
Protocol: On Day 1, Etoposide (LANCE) 200 mg/kg and 5-fluorouracil (5-FU; EBEWE) 400 mg/kg were given orally via feeding needle in 500 pl of a 9% glucose solution. Animals were divided into 4 groups of 16 rats each. […] Group I: IV placebo (WFI); • 2. Group II: human recombinant DNase I (Pharmsynthez OJSC) at 1.5 mg/kg (3000 KU/kg) dose IV; • 3. Group III: human recombinant DNase I (Pharmsynthez OJSC) at 50 mg/kg (100000 KU/kg) dose IV; • 4. Group IV: cimetidine solution (Gedeon Richter) at 50 mg/kg dose IV.
36 hours later, all animals were euthanized and their stomachs were removed and analyzed for the presence of erosions and hemorrhages using an automated video analyzer system.

[2] = for Body weight of surviving rats: Doxorubicin 3.75 mg/kg plus DNase I 15 mg/kg/day IP or placebo; for Number of dead/out of total in group: monitored 2 weeks
Text: Group I: control group (no Doxorubicin, no DNase); • 2.
Animals were monitored during 2 weeks from the beginning of experiment for survival and weight.

[3] = surviving rats, Day 14; Doxorubicin 3.75 mg/kg plus DNase I 15 mg/kg/day IP or placebo
Protocol: 42 Wistar male rats (180-200 g) were used in this experiment (obtained from Stolbovaya nursery of Russian Academy of Medical Sciences). Animals were kept under standard conditions with free access to food and drinking water. Animals were randomized into 7 groups (6 animals in each group) as follows: • 1. Group I: control group (no Doxorubicin, no DNase); • 2. Group II: animals treated by daily intravenous (IV) injections of Doxorubicin (LENS) at 3.75 mg/kg/day dose for 5 days plus daily intraperitoneal (IP) injections of human recombinant DNase I (Pharmsynthez OJSC) at 15 mg/kg/day dose (30000 KU/kg/day); Doxorubicin and DNase I injections were administered at the same time; • 3. Group III: animals treated by daily IV injections of Doxorubicin (LENS) at 3.75 mg/kg/day dose for 5 days plus daily IP injections of placebo (water for injection [WFI]); • 4. Group IV: animals treated by daily IV injections of Doxorubicin (LENS) at 7.5 mg/kg/day dose for 5 days plus daily IP injections of human recombinant DNase I (Pharmsynthez OJSC) at 15 mg/kg/day dose (30000 KU/kg/day); Doxorubicin and DNase I injections were administered at the same time; • 5. Group V: animals treated by daily IV injections of Doxorubicin (LENS) at 7.5 mg/kg/day dose for 5 days plus daily IP injections of placebo (WFI); • 6. Group VI: animals treated by daily IV injections of Doxorubicin (LENS) at 10.0 mg/kg/day dose for 5 days plus daily IP injections of human recombinant DNase I (Pharmsynthez OJSC) at 15 mg/kg/day dose (30000 KU/kg/day); Doxorubicin and DNase I injections were administered at the same time; • 7. Group VII: animals treated by daily IV injections of Doxorubicin (LENS) at 10.0 mg/kg/day dose for 5 days plus daily IP injections of placebo (WFI).

Thymocytes = experiment: Con A-induced lymphocyte blast transformation of thymocytes from paclitaxel-treated mice (3H thymidine incorporation); type: in vivo, (CBAxC57Bl6) F1 mice; conditions: thymocytes collected 24 hours after paclitaxel 20 mg/kg IV, with or without DNase gamma 2 mg/kg IP 1 hour later, scintillation counts
Protocol: 10 male 6-week-old (CBAxC57Bl6) F1 mice (obtained from Rappolovo animal house) were given a single 20 mg/kg dose of paclitaxel (Paclitaxel-Teva) IV. A group of 5 paclitaxel treated mice were injected IP 1 hour later with recombinant mouse DNase gamma (USCN Life Science Inc.) at 2 mg/kg dose IP. A group of 5 […] mice were injected IP at the same time with 1 ml of placebo (WFI) to serve as the control. All mice were killed 24 hours later by cervical dislocation. The thymuses from each group were collected and homogenized in a separator in RPMI 1640 media supplemented with 10% fetal calf serum. The suspension of thymocytes was filtered and sedimented in a centrifuge at 400xg for 2 minutes and then resuspended with the same media. Thymocytes were plated into 96 well plates (900,000 cells per well in 200 pl of RPMI 1640 supplemented with 10% fetal calf serum (FCS)) and incubated for 32 hours at 37°C, 100% humidity and 5% COz atmosphere. Each well was then supplemented with ^3H thymidine (UC/10pl/well) and Concanavalin A (ConA; 50pl; 1.25 pg/ml). After 24 hours of further incubation, thymocytes were harvested and dried. Labeled ^3H thymidine incorporation was measured using a Beckman scintillation counter.

[4] = Doxorubicin 3.75 mg/kg/day IV for 5 days plus DNase I 15 mg/kg/day IP or placebo (WFI)
[5] = Doxorubicin 7.5 mg/kg/day IV for 5 days plus DNase I 15 mg/kg/day IP or placebo (WFI)
[6] = Doxorubicin 10.0 mg/kg/day IV for 5 days plus DNase I 15 mg/kg/day IP or placebo (WFI)

SMILES: Nc1ccn([C@@H]2O[C@H](CO)[C@@H](O)[C@@H]2O)c(=O)n1 [AraC, cytosine arabinoside]
survival rates (L1210 leukemia cells): better survival rates versus non-treated mice

Median number of lesions [1]: 2.5±1.1 | Number of lesion free animals (percent) [1]: 62.5% | Total number of lesions per group ([1]; 16 animals, 36 hours later): 40 | Number of lesion free animals ([1]; of 16 animals): 10
SMILES: CN/C(=N/CCSCc1nc[nH]c1C)NC#N [Cimetidine, cimetidine]

SMILES: COc1cccc2c1C(=O)c1c(O)c3c(c(O)c1C2=O)C[C@@](O)(C(=O)CO)C[C@@H]3O[C@H]1C[C@H](N)[C@H](O)[C@H](C)O1 [Doxorubicin]
Body weight of surviving rats ([2]; Baseline (before doxorubicin)): 164 ± 6 grams | Body weight of surviving rats ([2]; Day 4): 143 ± 6 grams | Body weight of surviving rats ([2]; Day 7): 151 ± 7 grams | Body weight of surviving rats ([2]; Day 14): 156 ± 6 grams | Median survival of deceased rats [2, 4]: 12 ± 2.1 days | Number of dead/out of total in group [2, 4]: 3/6 | Median survival of deceased rats [2, 5]: 8.2 ± 1.0 days | Number of dead/out of total in group [2, 5]: 5/6 | Median survival of deceased rats [2, 6]: 6.6 ± 0.9 days | Number of dead/out of total in group [2, 6]: 6/6 | Basophils [3]: 0% | Eosinophils [3]: 2.4±0.3% | Glucose [3]: 6.1 ± 0.2 mmol/L | Haemoglobin [3]: 9.5±0.7 G% | Hematocrit [3]: 30.5±2.2% | K [3]: 5.6 ± 0.3 mmol/L | Lymphocytes [3]: 82.3±2.2% | Monocyte [3]: 2.3±0.5% | Na [3]: 144 ± 2 mmol/L | Plasmatic cells [3]: 1.3±0.5% | Platelets [3]: 340±25 10^9/L | Protein [3]: 54.7 ± 7.3 g/L | RBC sedimentation count [3]: 24.1±4.5 mm/h | Segmented neutrophils [3]: 11.6±1.3% | Total cholesterol [3]: 1.10 ± 0.29 mmol/L | Total lipids [3]: 2.06 ± 0.27 g/L | Urea [3]: 7.21 ± 0.3 mmol/L | WBC [3]: 4.9±0.2 10^9/L

SMILES: CC(=O)O[C@H]1C(=O)[C@@]2(C)[C@H]([C@H](OC(=O)c3ccccc3)[C@]3(O)C[C@H](OC(=O)[C@H](O)[C@@H](NC(=O)c4ccccc4)c4ccccc4)C(C)=C1C3(C)C)[C@]1(OC(C)=O)CO[C@@H]1C[C@@H]2O [Paclitaxel, paclitaxel]
Con A-induced ^3HT incorporation (Thymocytes; ConA): 1686±142 CPM | Basal ^3HT incorporation (Thymocytes): 277±21 CPM
